Here are results for 4 molecules from publication PMC6273342, “Cytotoxic Alkaloids from the Stem of Xylopia laevigata” (Molecules, 2016).

pIC50: −log10 of the molar value. Where two headings read alike, the source gives them in different places.

Series [1] concerns HepG2 cells. The series is described as follows: Acridine Orange/ethidium bromide staining, fluorescence microscopy, HepG2. The series is classed as cell-based, human. The settings on record: HepG2, 24 h, p < 0.05; for number of apoptotic cells (AO/EB): lanuginosine 10 and 20 μg/mL, (+)-xylopine 5 and 10 μg/mL. Here is the method: (§1) The following set of experiments was performed to investigate the mechanisms involved in the cytotoxic action of the alkaloids lanuginosine and (+)-xylopine. In all experiments, 2 mL of a HepG2 cell solution (0.7 × 10^5 cells/mL) was placed in 24-well plates and incubated overnight to allow the cells to adhere to the plate surface. The cells were then treated for 24 h with the alkaloids lanuginosine (10 and 20 μg/mL) and (+)-xylopine (5 and 10 μg/mL). The negative control was treated with the vehicle (0.2% DMSO) used for diluting the alkaloids. […] Cell viability was assessed for all experiments using a Trypan Blue exclusion assay.
Cells were pelleted and resuspended in saline (25 μL). Then, 1 μL of aqueous solution of AO/EB (100 μg/mL, Sigma-Aldrich Co.) was added, and the cell viability changes were observed under a fluorescence microscope (Olympus BX41). In this assay, AO permeates all cells and makes the nuclei appear green. EB is only taken up by cells when the cytoplasmic membrane integrity is lost and stains the nucleus red. EB also dominates over AO. Thus, live cells have a normal green nucleus; early apoptotic cells have a bright green nucleus with condensed or fragmented chromatin; late apoptotic cells display condensed and fragmented orange chromatin; cells that have died from direct necrosis have a structurally normal orange nucleus. Three hundred cells were counted per sample and classified as viable, apoptotic or necrotic.

In series [2] the test system is peripheral blood mononuclear cells (PBMCs). The series is described as follows: Alamar Blue cytotoxicity assay, non-tumor PBMCs. The series is classed as cell-based. The note with it: Homo sapiens, PBMC, 72 h incubation, ConA-stimulated PBMCs; for pIC50: value in brackets. How it is done:
Heparinized blood was collected from 20- to 35-year-old, healthy non-smokers who had not taken any drugs for at least 15 days prior to sampling, and the peripheral blood mononuclear cells (PBMCs) were isolated using a Ficoll density gradient in a Ficoll-Paque Plus (GE Healthcare Bio-Sciences AB, Uppsala, Sweden). PBMCs were washed and resuspended at a concentration of 0.3 × 10^6 cells/mL in RPMI 1640 medium with 20% fetal bovine serum, 2 mM L-glutamine and 50 μg/mL gentamycin at 37 °C with 5% CO2. Concanavalin A (ConA, Sigma-Aldrich Co.) was used as a mitogen to trigger cell division in T-lymphocytes. ConA (10 μg/mL) was added at the beginning of culture, and the cells were treated with the test compounds after 24 h. Cell viability was examined using a trypan blue exclusion assay for all experiments. Over 90% of the cells were viable at the beginning of the culture. The Research Ethics Committee of the Oswaldo Cruz Foundation (Salvador, Bahia, Brazil) approved the experimental protocol (#031019/2013). All participants signed a written informed consent to participate in the study.
(Resazurin is reduced to fluorescent resorufin, in cell work by metabolically active cells.)

For series [3], the system named is HepG2 cells. The series is described as follows: Annexin assay (phosphatidylserine externalization, flow cytometry), HepG2. The series is classed as cell-based, human. The settings on record: HepG2, 24 h; p < 0.05; without affecting the cell membrane integrity. Here is the method:
as §1
Phosphatidylserine externalization was analyzed by flow cytometry. A FITC annexin V apoptosis detection kit (BD Biosciences, San Jose, CA, USA) was used to determine cell viability (viable, early apoptotic, late apoptotic and necrotic cells). Cells were washed twice with saline and then resuspended in 100 μL of binding buffer with 5 μL of propidium iodide and 5 μL of FITC annexin V. The cells were gently mixed on a vortexer and incubated for 15 min at room temperature (20–25 °C) in the dark. Afterwards, 400 μL of binding buffer was added to each tube and the cells were analyzed by flow cytometry on a BD LSRFortessa cytometer using BD FACSDiva Software (BD Biosciences) and Flowjo Software 10 (Flowjo LCC, Ashland, OR, USA). Ten thousand events were evaluated per experiment and cellular debris was omitted from the analysis.

The test system of series [4] is HL-60 (human promyelocytic leukemia). The series is described as follows: Alamar Blue cytotoxicity assay, HL-60. Format: cell-based. The settings on record: for IC50 / pIC50: Homo sapiens, HL-60, Alamar Blue, 72 h incubation, read-out: IC50 HL60; for pIC50: value in brackets; for selectivity index (SI): SI = IC50[PBMC]/IC50[HL-60].
Description: (§3) B16-F10, HepG2, K562 and HL-60 tumor cell lines were kindly donated by Hospital A.C. […] Cells were maintained in RPMI 1640 medium (Gibco-BRL, Gaithersburg, MD, USA) with 10% fetal bovine serum (Cultilab, Campinas, Brazil), 2 mM L-glutamine (Vetec Química Fina, Duque de Caxias, Brazil) and 50 μg/mL gentamycin (Novafarma, Anápolis, Brazil). Adherent cells were collected by treatment with 0.25% trypsin-EDTA solution (Gibco-BRL). All cell lines were cultured in flasks at 37 °C in 5% CO2 and sub-cultured every 3–4 days to maintain exponential growth. All cell lines were tested for mycoplasma using a Mycoplasma Stain Kit (Sigma-Aldrich, St. Louis, MO, USA) to confirm that the cells were free from contamination.
(§4) Cell viability was quantified using the Alamar Blue assay, according to Ahmed et al. [23]. Cells were placed in 96-well plates for all experiments (0.7 × 10^5 cells/mL for adherent cells or 0.3 × 10^6 cells/mL for suspended cells in 100 μL of medium). After 24 h, the alkaloids (in a range of eight different concentrations varying from 0.19 to 25 μg/mL) were dissolved in dimethyl sulfoxide (DMSO, Sigma-Aldrich Co.), and the solution was added to each well and incubated for 72 h. […] Negative controls received the vehicle that was used for diluting the alkaloids (0.5% DMSO). Four (for cell lines) or 24 h (for PBMCs) before the end of incubation, 20 μL of a stock solution (0.312 mg/mL) of the Alamar Blue (resazurin, Sigma-Aldrich Co.) was added to each well. The absorbance at 570 nm and 600 nm was measured using a SpectraMax 190 Microplate Reader (Molecular Devices, Sunnyvale, CA, USA), and the drug effect was quantified as the percentage of control absorbance.
Series [5] relates to HepG2 cells. The series is described as follows: Internucleosomal DNA fragmentation and cell cycle distribution (flow cytometry, propidium iodide), HepG2. Format: cell-based, human. The settings on record: HepG2, 24 h; for Cell Cycle Phases (%) G2/M: NC 19.93 ± 6.12; for Cell Cycle Phases (%) G1: NC 51.50 ± 4.02. Here is the method: as §1
Cells were harvested in a lysis solution containing 0.1% triton X-100 (Sigma Chemical Co., St. Louis, MO, USA), 2 µg/mL propidium iodide (Sigma Chemical Co.), 0.1% sodium citrate and 100 µg/mL RNAse (Sigma Chemical Co.). Cell fluorescence was determined by flow cytometry on a BD LSRFortessa cytometer using BD FACSDiva Software (BD Biosciences) and Flowjo Software 10. Ten thousand events were evaluated per experiment and cellular debris was omitted from the analysis.

Series [6] relates to HepG2 (human hepatocellular carcinoma). The series is described as follows: Alamar Blue cytotoxicity assay, HepG2. Format: cell-based. The note with it: 72 h incubation; for pIC50: value in brackets. The source says:
(§2) Camargo, São Paulo, Brazil.

The test system of series [7] is HepG2 cells. The series is described as follows: Morphological analysis with May-Grünwald-Giemsa staining, HepG2. Format: cell-based, human. The note with it: HepG2, 24 h; lanuginosine 10 and 20 μg/mL, (+)-xylopine 5 and 10 μg/mL. Here is the method:
as §1
To evaluate alterations in morphology, cells were cultured under a coverslip, fixed with methanol for 30 s and stained with May-Grünwald-Giemsa stain. Morphological changes were examined by light microscopy (Olympus BX41, Tokyo, Japan) using Image-Pro software (Media Cybernetics, Rockville, MD, USA).

The test system of another series is B16-F10 (mouse melanoma). The series is described as follows: Alamar Blue cytotoxicity assay, B16-F10. The note with it: 72 h incubation; for pIC50: value in brackets. Format: cell-based.
Description: as §2

Series [8] relates to K562 (human chronic myelocytic leukemia). The series is described as follows: Alamar Blue cytotoxicity assay, K562. Format: cell-based. The note with it: 72 h incubation; for pIC50: value in brackets.
Description: as §2

Series [9] concerns tumor cell lines B16-F10, HepG2, K562 and HL-60. The series is described as follows: Alamar Blue cytotoxicity assay, summary over the tumor cell lines tested. The note with it: 72 h, read-out: IC50 in at least one of the tumor cell lines tested.
Description: as §3, §4
Series [10] relates to HepG2 cells. The series is described as follows: Trypan Blue dye exclusion, HepG2. Format: cell-based, human. The settings on record: HepG2, 24 h, lanuginosine 10 and 20 μg/mL, (+)-xylopine 5 and 10 μg/mL; for number of viable cells: p < 0.05. How it is done:
as §1

Another series in a line: in vitro. The settings on record: mouse (B16-F10); human (HepG2, K562, HL-60).
Details of series [11]: method as in PMID 22491683. The note with it: previously studied; cited from earlier work.

Description for in vitro: as §3, §4

With `COc1ccc2c(c1)C[C@@H]1NCCc3cc4c(c-2c31)OCO4` [(+)-Xylopine, (+)-xylopine], the “number of apoptotic cells (AO/EB)” value with HepG2 cells [1] is recorded as “increased number of apoptotic cells”. Moreover, the IC50 (as a rule, the point on the concentration scale where inhibition reaches its midpoint) was 4.08 µg/mL in series [2]; 1.87 µg/mL in series [4]; 1.87 µg/mL in series [6]; 3.77 µg/mL in the series on B16-F10 (mouse melanoma); 3.12 µg/mL in [8]; under 4 µg/mL in series [9]. The pIC50 (commonly the IC50 on a negative log10 scale, so that one unit is a factor of ten) was 4.86 in [2]; 5.20 in series [4]; 5.20 in series [6]; 4.90 in the series on B16-F10 (mouse melanoma); 4.98 in series [8]. Also, the phosphatidylserine exposure result in the series on HepG2 cells [3] is on record as “significant increase in phosphatidylserine exposure”. For the same molecule, in series [4], the “selectivity index (SI)” value was found to be 2.2. The “Cell Cycle Phases (%) S” value in the series with HepG2 cells [5] (5 µg/mL, NC 16.11 ± 1.89) amounted to 10.80 ± 1.50 %. Moreover, the results for the “Cell Cycle Phases (%) G2/M” value with HepG2 cells [5] (5 µg/mL) and with HepG2 cells [5] (10 µg/mL) were 64.16 ± 2.56 % and 39.96 ± 9.59 %, respectively. For the same molecule, the “Cell Cycle Phases (%) G1” value in the series on HepG2 cells [5] (5 µg/mL) turned out to be 28.05 ± 3.15 %; in the series with HepG2 cells [5] (10 µg/mL) it was 20.43 ± 3.06 %. Further, in the series on HepG2 cells [5] (5 and 10 μg/mL), the “effect on cell cycle distribution” value is on record as “total number of cells in the G2/M phase increased, indicating cell cycle arrest during this phase”. For the same molecule, the “internucleosomal DNA fragmentation (sub-G1)” value with HepG2 cells [5] (5 and 10 μg/mL, p < 0.05) is “increase in the internucleosomal DNA fragmentation”. The cell morphology entry in the series with HepG2 cells [7] is “morphology consistent with apoptosis, including chromatin condensation and fragmentation of the nuclei”. In addition, in the series on HepG2 cells [10], the “number of non-viable cells” value was “without increasing the number of non-viable cells”. The “number of viable cells” value in the series with HepG2 cells [10] is “reduce the number of viable cells”.

Regarding `COc1cc2c(cc1OC)-c1c(OC)c(O)cc3c1C(C2)NCC3` (single isomer, unassigned; (+)) [(+)-Norpredicentrine, (+)-norpredicentrine], the IC50 (in series [2]; in series [4]; in series [6]; with B16-F10 (mouse melanoma); in series [8]) was over 25 µg/mL throughout. The IC50 at 72 h in the series “in vitro” is over 25 µg/mL.

For the molecule `COc1cc2c(cc1OC)-c1c(OC)c(OC)cc3c1C(C2)NCC3` (single isomer, unassigned; (+)) [(+)-Norglaucine, (+)-norglaucine], the IC50 is 6.7 µg/mL in series [2]; 6.84 µg/mL in series [4]; 3.78 µg/mL in [6]; 8.48 µg/mL in the series on B16-F10 (mouse melanoma); 7.84 µg/mL in [8]; under 4 µg/mL in series [9]. Besides, the pIC50 is 4.71 in series [2]; 4.70 in series [4]; 4.96 in [6]; 4.61 with B16-F10 (mouse melanoma); 4.64 in [8]. Also, in [4], the “selectivity index (SI)” value is reported as 1.0. Moreover, in [11], the pro-apoptotic effect result was “no effect was found”.

With `COc1ccc2c(c1)C(=O)c1nccc3cc4c(c-2c13)OCO4` [Lanuginosine, lanuginosine], the “percentage of necrotic cells (AO/EB)” value in the series with HepG2 cells [1] (at the higher concentration) is “significantly increased the percentage of necrotic cells”. In addition, the “number of apoptotic cells (AO/EB)” value in the series with HepG2 cells [1] was “increased number of apoptotic cells”. The IC50 in [2] was 24.5 µg/mL; in series [4], 7.81 µg/mL; in [6], 3.89 µg/mL; with B16-F10 (mouse melanoma), 8.46 µg/mL; in [8] it was 6.61 µg/mL; in series [9] it was under 4 µg/mL. In addition, the pIC50 in series [2] is 4.10; in series [4] it was 4.59; in series [6], 4.90; in the series with B16-F10 (mouse melanoma), 4.56; in series [8] it was 4.67. Besides, in the series with HepG2 cells [3], the phosphatidylserine exposure result was “significant increase in phosphatidylserine exposure”. For the same molecule, the “selectivity index (SI)” value in series [4] was 3.1. In addition, in the series with HepG2 cells [7], the cell morphology entry is “morphology consistent with apoptosis, including chromatin condensation and fragmentation of the nuclei”. Further, the “number of non-viable cells” value with HepG2 cells [10] is “without increasing the number of non-viable cells”. In the series on HepG2 cells [10], the “number of viable cells” value was “reduce the number of viable cells”.
